The source of these data is ChEMBL document CHEMBL1151671, “Cytotoxic oxygenated desmosterols of the red alga Galaxaura marginata” (1996).

≈ marks a conversion by molar mass, not a printed value.

Assay type in all cases: functional
Common to all, as to details: read-out: ED50 (the source's name)

The subject of test [1] is P388. The experiment in a line: Cytotoxicity against mouse P388 cells by MTT assay. (Tetrazolium dyes change colour on reduction, which living cells bring about.)
Test [2] concerns KB. The experiment in a line: Cytotoxicity against human KB cells by MTT assay.
Test [3] has as its system A549. Description: Cytotoxicity against human A549 cells by MTT assay.
For test [4], the system named is HT-29. Description: Cytotoxicity against human HT29 cells by MTT assay.

With `C=C(C)C(CC[C@@H](C)[C@H]1CC[C@H]2[C@@H]3CC=C4C[C@@H](O)CC[C@]4(C)[C@H]3CC[C@]12C)OO` (stereo partly specified), the EC50 in test [1] amounted to 0.26 µg/mL (≈ 0.624 µM); in test [2], 0.33 µg/mL (≈ 0.792 µM); in test [3] it was 0.64 µg/mL (≈ 1.54 µM); in test [4], 0.43 µg/mL (≈ 1.03 µM).
For `C[C@H](C/C=C/C(C)(C)OO)[C@H]1CC[C@H]2[C@@H]3CC=C4C[C@@H](O)CC[C@]4(C)[C@H]3CC[C@]12C`, the EC50 in test [1] stood at 0.22 µg/mL (≈ 0.528 µM).
Regarding `C[C@H](C/C=C/C(C)(C)O)[C@H]1CC[C@H]2[C@@H]3CC=C4C[C@@H](O)CC[C@]4(C)[C@H]3CC[C@]12C`, the EC50 in test [1] was 0.15 µg/mL (≈ 0.374 µM); in test [2] it was 0.61 µg/mL (≈ 1.52 µM); in test [3] it was 1.08 µg/mL (≈ 2.7 µM); in test [4], 0.6 µg/mL (≈ 1.5 µM).
The corresponding values for `C=C(C)C(O)CC[C@@H](C)[C@H]1CC[C@H]2[C@@H]3CC=C4C[C@@H](O)CC[C@]4(C)[C@H]3CC[C@]12C` (stereo partly specified) are 0.36 µg/mL (≈ 0.899 µM), 0.67 µg/mL (≈ 1.67 µM), 1.61 µg/mL (≈ 4.02 µM) and 0.37 µg/mL (≈ 0.924 µM).
For `C[C@H](CCC1OC1(C)C)[C@H]1CC[C@H]2[C@@H]3C[C@@H](O)C4=CC(=O)CC[C@]4(C)[C@H]3CC[C@]12C` (mixture of isomers) the same measures were 0.75 µg/mL, 0.3 µg/mL, 3.14 µg/mL and 0.87 µg/mL.
Turning to `CC(C)=CCC[C@@H](C)[C@H]1CC[C@H]2[C@@H]3CC=C4C[C@@H](O)CC[C@]4(C)[C@H]3CC[C@]12C` [DESMOSTEROL], the EC50 in test [1] was 33.5 µg/mL (≈ 87.2 µM); in test [2], more than 50 µg/mL; in test [3], more than 50 µg/mL; in test [4], more than 50 µg/mL.
